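48-hour exposure; five concentrations; linearly interpolated endpoints. Here, GI50 denotes the concentration required for 50% inhibition of growth.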 Activity calls are given as the source filed them. Rule as the data show it: active = GI50 up to about 1.1 µM and inactive = higher.
Tests used:
Assay in all cases: growth of human tumour cells (NCI), 48 h
SK-MEL-5 = tested on: SK-MEL-5
UACC-62 = tested on: UACC-62
OVCAR-5 = tested on: OVCAR-5
HOP-62 = tested on: HOP-62
T47D = tested on: T47D
UACC-257 = tested on: UACC-257
SK-OV-3 = tested on: SK-OV-3
A549 = tested on: A549
SR = tested on: SR
KM12 = tested on: KM12
DU-145 = tested on: DU-145
ACHN = tested on: ACHN
SK-MEL-2 = tested on: SK-MEL-2
SN12C = tested on: SN12C
CCRF-CEM = tested on: CCRF-CEM
MCF7 = tested on: MCF7
NCI-H522 = tested on: NCI-H522
RXF 393 = tested on: RXF 393
SF-539 = tested on: SF-539
Malme-3M = tested on: Malme-3M
U-251 = tested on: U-251
MOLT-4 = tested on: MOLT-4
M14 = tested on: M14
SNB-19 = tested on: SNB-19
OVCAR-4 = tested on: OVCAR-4
UO-31 = tested on: UO-31
SF-268 = tested on: SF-268
OVCAR-8 = tested on: OVCAR-8
HCT-116 = tested on: HCT-116
NCI-H226 = tested on: NCI-H226
EKVX = tested on: EKVX
MDA-MB-231 = tested on: MDA-MB-231
OVCAR-3 = tested on: OVCAR-3
BT-549 = tested on: BT-549
A498 = tested on: A498
Hs-578T = tested on: Hs-578T
COLO 205 = tested on: COLO 205
SK-MEL-28 = tested on: SK-MEL-28
NCI/ADR-RES = tested on: NCI/ADR-RES
SNB-75 = tested on: SNB-75
SW-620 = tested on: SW-620
HT-29 = tested on: HT-29
NCI-H23 = tested on: NCI-H23
LOX IMVI = tested on: LOX IMVI
HL-60 = tested on: HL-60
NCI-H460 = tested on: NCI-H460
SF-295 = tested on: SF-295
MDA-N = tested on: MDA-N
TK-10 = tested on: TK-10
MDA-MB-435 = tested on: MDA-MB-435
IGROV-1 = tested on: IGROV-1
K562 = tested on: K562
PC-3 = tested on: PC-3
HCT-15 = tested on: HCT-15
786-0 = tested on: 786-0

Measured: GI50

CCNC(=S)N/N=C/c1ccccn1
inactive: SK-MEL-5 3.95 µM | UACC-62 9.98 µM | OVCAR-5 15.4 µM | HOP-62 6.12 µM | T47D 1.98 µM | UACC-257 6.65 µM | SK-OV-3 5.07 µM | A549 7.62 µM | SR > 100 µM | KM12 8.67 µM | DU-145 7.13 µM | ACHN 5.69 µM | SK-MEL-2 42.2 µM | SN12C 4.97 µM | MCF7 3.27 µM | RXF 393 19 µM | SF-539 6.7 µM | Malme-3M 5.78 µM | U-251 6.55 µM | MOLT-4 1.58 µM | M14 9.4 µM | SNB-19 19.6 µM | OVCAR-4 1.29 µM | UO-31 2.44 µM | SF-268 2.4 µM | OVCAR-8 3.3 µM | HCT-116 8.93 µM | NCI-H226 3.83 µM | EKVX 4.54 µM | MDA-MB-231 7.05 µM | BT-549 20.9 µM | A498 5.09 µM | Hs-578T > 100 µM | COLO 205 3.24 µM | SK-MEL-28 16.7 µM | NCI/ADR-RES 6.95 µM | SNB-75 62.2 µM | SW-620 6 µM | HT-29 4.47 µM | NCI-H23 6.56 µM | LOX IMVI 7.18 µM | HL-60 3.74 µM | NCI-H460 4.94 µM | SF-295 7.14 µM | MDA-N 27.7 µM | TK-10 25.2 µM | MDA-MB-435 16.3 µM | IGROV-1 5.11 µM | K562 2.86 µM | PC-3 6.95 µM | 786-0 5.81 µM
active: CCRF-CEM 0.957 µM | NCI-H522 0.579 µM | OVCAR-3 0.729 µM
6.64 µM: HCT-15

From ChEMBL document CHEMBL1201862, “PubChem BioAssay data set” (2004)
